Test: xn = mol fraction of the nth substance listed
Conditions: 100 kPa, Liquid; for viscosity: Concentric cylinders viscometry; for mass density: Vibrating tube method

CCOP(=O)([O-])OCC.CCn1cc[n+](C)c1 [1-ethyl-3-methylimidazolium diethyl phosphate] + O
Conditions	mass density [kg/m3]	viscosity [mPa·s]
293.15 K, x2 = 0.012	1151.2	540
293.15 K, x2 = 0.061	1151.7	513
293.15 K, x2 = 0.123	1152.1	487
293.15 K, x2 = 0.183	1152.4	462
293.15 K, x2 = 0.259	1153	422
293.15 K, x2 = 0.502	1154.6	202
293.15 K, x2 = 0.765	1150.2	51.1
293.15 K, x2 = 0.88	1124	12.5
303.15 K, x2 = 0.012	1144.2	274
303.15 K, x2 = 0.061	1144.7	262
303.15 K, x2 = 0.123	1145.2	250
303.15 K, x2 = 0.183	1145.5	238
303.15 K, x2 = 0.259	1146.1	219
303.15 K, x2 = 0.502	1147.8	111
303.15 K, x2 = 0.765	1143.1	31.2
303.15 K, x2 = 0.88	1116.7	8.35
313.15 K, x2 = 0.012	1137.4	154
313.15 K, x2 = 0.061	1137.9	148
313.15 K, x2 = 0.123	1138.4	141
313.15 K, x2 = 0.183	1138.7	135
313.15 K, x2 = 0.259	1139.3	125
313.15 K, x2 = 0.502	1141.1	65.8
313.15 K, x2 = 0.765	1135.9	20.3
313.15 K, x2 = 0.88	1109.2	5.91
323.15 K, x2 = 0.012	1130.7	94
323.15 K, x2 = 0.061	1131.2	90.2
323.15 K, x2 = 0.123	1131.7	86.4
323.15 K, x2 = 0.183	1132	83.1
323.15 K, x2 = 0.259	1132.6	76.5
323.15 K, x2 = 0.502	1134.3	40.7
323.15 K, x2 = 0.765	1128.6	14
323.15 K, x2 = 0.88	1101.7	4.38
333.15 K, x2 = 0.012	1124.1	61.2
333.15 K, x2 = 0.061	1124.6	58.8
333.15 K, x2 = 0.123	1125	56.2
333.15 K, x2 = 0.183	1125.4	54.3
333.15 K, x2 = 0.259	1126	49.3
333.15 K, x2 = 0.502	1127.4	27.6
333.15 K, x2 = 0.765	1121.2	10.1
333.15 K, x2 = 0.88	1094	3.36
343.15 K, x2 = 0.012	1117.5	42.1
343.15 K, x2 = 0.061	1118	40.4
343.15 K, x2 = 0.123	1118.4	38.6
343.15 K, x2 = 0.183	1118.8	37.4
343.15 K, x2 = 0.259	1119.3	34.1
343.15 K, x2 = 0.502	1120.5	19.6
343.15 K, x2 = 0.765	1113.8	7.58
343.15 K, x2 = 0.88	1086.1	2.67
353.15 K, x2 = 0.012	1111	30.2
353.15 K, x2 = 0.061	1111.5	29
353.15 K, x2 = 0.123	1111.9	27.7
353.15 K, x2 = 0.183	1112.1	26.9
353.15 K, x2 = 0.259	1112.7	24.5
353.15 K, x2 = 0.502	1113.7	14.4
353.15 K, x2 = 0.765	1106.3	5.88
353.15 K, x2 = 0.88	1078.1	2.18
363.15 K, x2 = 0.012	1104.5	22.5
363.15 K, x2 = 0.061	1104.9	21.6
363.15 K, x2 = 0.123	1105.2	20.6
363.15 K, x2 = 0.183	1105.6	20
363.15 K, x2 = 0.259	1106.1	18.3
363.15 K, x2 = 0.502	1106.8	11.2
363.15 K, x2 = 0.765	1098.7	4.69
363.15 K, x2 = 0.88	1070	1.83
373.15 K, x2 = 0.012	1098.2	17.3
373.15 K, x2 = 0.061	1098.5	16.5
373.15 K, x2 = 0.123	1098.9	15.8
373.15 K, x2 = 0.183	1099.1	15.3
373.15 K, x2 = 0.259	1099.6	14.1
373.15 K, x2 = 0.502	1099.9	8.9
373.15 K, x2 = 0.765	1091.2	3.83
373.15 K, x2 = 0.88	1061.9	1.55

— the NIST ThermoML archive (doi:10.1021/acs.jced.7b00788)
